Results from patent US20030199671A1, “Binding molecules for Fc-region polypeptides” (priority 2001, published 2003).
Positions of bridges follow the written chain, without caps; N, C: chain ends. Residues, ends and D or L forms follow the SMILES beside them.

What was measured:
human plasma IgG4 = molecular target: T1, human plasma IgG4 (Homo sapiens, UniProt P01861); assay: Fluorescence anisotropy binding, fluorescein-labeled peptide
T1 construct: the individual human plasma IgG isoforms: IgG1, IgG2, IgG3, or IgG4; purchased Calbiochem; host or cells: human plasma

human plasma IgG3 = molecular target: T2, human plasma IgG3 (Homo sapiens, UniProt P01860); assay: as above
T2 construct: the individual human plasma IgG isoforms: IgG1, IgG2, IgG3, or IgG4; purchased Calbiochem; host or cells: human plasma

IgG4 = IgG4 (Homo sapiens, UniProt P01861); assay: Competition between synthetic peptides and Protein A for Fc binding; design: the individual human plasma IgG isoforms: IgG1, IgG2, IgG3, or IgG4; purchased Calbiochem; host or cells: human plasma; key: NB: no detected binding.; ?: partial decrease in anisotropy with added competitor; settings: 5 mg/ml protein A
Protocol: Cross-competition studies between peptides were performed using 20 nM fluorescein-labeled peptide and 1-2 μM IgG1, IgG2, IgG3, or IgG4 in the presence and absence of a maximum of 100 μM unlabeled peptide or 5 mg/ml protein A.
This is consistent with the fact that Protein A is known not to bind human IgG3.

hIgG1 = molecular target: T3, hIgG1 (Homo sapiens, UniProt P01857); assay: Mini-chromatography column binding (dynamic conditions); settings: 350 μl column, human IgG1 spiked into PBST, pH 7.2
T3 construct: purchased Calbiochem 400120; host or cells: human myeloma patients
Protocol: (§1) Thus, 250 μg of target (hIgG1, hIgG2, hIgG3, hIgG4, goat IgG and bovine IgG) at 0.250 mg/ml in PBST, pH 7.2 or TBST, pH 7.3 was loaded onto a 350 μl column (3×50 mm) run at 0.200 ml/min. flowrate (170 cm/hr). Flowthrough, elution and cleaning fractions were collected and assayed for total protein recovery by size-exclusion HPLC. Percentage mass balance was also determined to be 90-100% on average.
For these experiments, 350 μl columns (3×50 mm) were packed with each media. The columns were tested with human Fc fragments or human IgG1 (Calbiochem, 401104 and 400120 respectively) spiked into PBST, pH 7.2 at a concentration of 0.5 g/l. 65 μg of Fc was loaded onto each column. After loading, the columns were washed with PBST, pH 7.2, eluted with 30 mM H3PO4, 150 mM NaCl, pH 2.0 and cleaned with 0.1M CAPS, pH 11.5 buffer (3-[Cyclohexylamino]-1-propane-sulfonic acid). Fractions collected were immediately neutralized to pH ˜7.2 with 2.0 M Tris, pH 8.0. All column operations were conducted at 200 μl/min (170 cm/hr).

human IgG1 = molecular target: T4, human IgG1 (Homo sapiens, UniProt P01857); assay: Column capture out of tobacco extract; type: binding; settings: from tobacco extract, size exclusion HPLC
T4 construct: all human subtypes derived from myeloma patients; purchased Calbiochem 400120; host or cells: myeloma patients
Protocol: The ability of affinity media based on DX253 to capture human Fc and human IgG1 out of tobacco extract was evaluated in separate experiments. The tobacco extract used was a representative concentration blank lot (CropTech, lot NV100-136). Human Fc or IgG1 was spiked into the tobacco extract at 50 μg/ml. 100 μg (2 ml) was loaded onto a 350 μl column packed the DX253 media at 200 μl/min. (170 cm/hr.). Prior to loading, the column had been equilibrated with 50 mM Tris buffer containing 150 mM NaCl and 0.01% Tween 20, pH 7.3 (TBST, pH 7.3). After loading, the column was washed with 50 mM Tris buffer containing 1M NaCl, pH 7.3 followed by elution with 30 mM H3PO4, 150 mM NaCl, pH 2.0. The column was then cleaned with 0.1 M CAPS, pH 11.5 and separately with 30% isopropanol, 5% acetic acid in water, ˜pH 2.7. Collected fractions were neutralized immediately with 2M Tris, pH 8, prior to analysis by size exclusion HPLC.

goat IgG = assay: Mini-chromatography column binding (dynamic conditions); settings: 250 μg target, 170 cm/hr
Protocol: as §1

bovine IgG = assay: as above; settings: 250 μg target, 170 cm/hr
Protocol: as §1

[1] = pH 9.3, 0.01 M sodium bicarbonate

Row | Molecule | Kd (human plasma IgG4; pH 7.4, 0.01 M Tris-HCl) [µM] | Kd (human plasma IgG4; pH 7.4, PBS, […] NaCl) [µM] | Kd (human plasma IgG4; [1]) [µM] | Kd (human plasma IgG3; pH 5.7, 0.01 M Tris-acetate) [µM] | Kd (human plasma IgG3; pH 7.4, 0.01 M Tris-HCl) [µM] | Kd (human plasma IgG3; pH 7.4, PBS, […] NaCl) [µM] | Kd (human plasma IgG3; [1]) [µM] | Competition between labeled peptide and Protein A, IgG4 (IgG4) | Capture efficiency, IgG1 (hIgG1) [%] | Kd (human plasma IgG4; pH 5.7, 0.01 M Tris-acetate) [µM] | % purity monomeric protein, IgG1 (human IgG1) [%] | Binding efficiency, goat IgG (goat IgG) | Binding efficiency, bovine IgG (bovine IgG)
1 | CC[C@H](C)[C@@H]1NC(=O)[C@H](CC(C)C)NC(=O)[C@H](CCC(=O)O)NC(=O)CNC(=O)[C@H](Cc2c[nH]c3ccccc23)NC(=O)[C@H]([C@@H](C)O)NC(=O)[C@H]([C@@H](C)O)NC(=O)[C@H](Cc2ccc(O)cc2)NC(=O)[C@H](C(C)C)NC(=O)[C@@H](NC(=O)[C@H](CCSC)NC(=O)[C@H](Cc2c[nH]cn2)NC(=O)[C@H](CC(=O)O)NC(=O)[C@H](CC(=O)O)NC(=O)CNC(C)=O)CSSC[C@@H](C(=O)N[C@@H](CC(=O)O)C(=O)N[C@@H](CC(N)=O)C(=O)N[C@@H](Cc2c[nH]cn2)C(=O)N[C@@H](CCC(=O)O)C(=O)N2CCC[C@H]2C(=O)NCC(=O)N2CCC[C@H]2C(=O)N[C@@H](CCC(=O)O)C(=O)NCC(=O)NCC(=O)NCC(=O)N[C@@H](CCCCN)C(N)=O)NC(=O)[C@H](Cc2c[nH]c3ccccc23)NC1=O [DX249] (Ac-GDDHMCVYTTWGELIWCDNHEPGPEGGGK-NH2; disulfide 6-17) | 1.9 ± 0.4 | 1.9 ± 1.2 | > 10 | > 10 | > 10 | > 10 | > 10 |  |  |  |  |  | 
2 | CC(=O)NCC(=O)N[C@@H](CC(=O)O)C(=O)N[C@@H](CC(=O)O)C(=O)N[C@@H](CC(=O)O)C(=O)N[C@@H](Cc1c[nH]cn1)C(=O)N[C@H]1CSSC[C@@H](C(=O)N2CCC[C@H]2C(=O)N[C@@H](Cc2c[nH]cn2)C(=O)NCC(=O)N[C@@H](CCC(=O)O)C(=O)N2CCC[C@H]2C(=O)NCC(=O)N2CCC[C@H]2C(=O)N[C@@H](CCC(=O)O)C(=O)NCC(=O)NCC(=O)NCC(=O)N[C@@H](CCCCN)C(N)=O)NC(=O)[C@H](CCC(=O)O)NC(=O)[C@H](CO)NC(=O)[C@H](CC(N)=O)NC(=O)[C@H](Cc2ccccc2)NC(=O)[C@H](Cc2c[nH]c3ccccc23)NC(=O)[C@H](CCC(=O)O)NC(=O)[C@H](CCCNC(=N)N)NC(=O)[C@H](Cc2ccccc2)NC(=O)[C@H](Cc2c[nH]c3ccccc23)NC(=O)[C@H](Cc2ccc(O)cc2)NC1=O [DX252] (Ac-GDDDHCYWFREWFNSECPHGEPGPEGGGK-NH2; disulfide 6-17 (inferred)) | 2.1 to 3.4 | > 10 | > 10 | < 0.1 | 2.1 to 3.4 |  | > 10 | NB | 80 | > 10 |  |  | 
3 | Ac-GDRRACSRDWSGALVWCAGHEPGPEGGGK-NH2 (not fully specified (bridges); printed as Ac-GDRRACSRDWSGALVWCAGHEPGPEGGGK-NH2; cysteine pairing not given here) [DX253] |  |  |  |  |  |  |  |  |  |  | 89 |  | 
4 | Prot. A: immobilized recombinant Protein A (RepliGen Corp., product no. IPA-400), positive control [reference compound] |  |  |  |  |  |  |  |  |  |  |  | moderate | high
